Article PMC10592247 (Molecular cancer therapeutics, 2023)

Key:
[1] = tested on: 22Rv1 cells; assay: Dextran uptake assay; assay type: cell-based; settings: 2µM for 30min before assay, TMR-dextran 1 mg/mL 30min
[2] = tested on: LNCaP-abl cells; assay: Cell viability after pre-incubation with endocytosis pathway inhibitors; assay type: cell-based; settings: EIPA 50µM 30min, then compound 10µM, PrestoBlue after 3 days, n=2

Row | SMILES | macropinocytosis (TMR-dextran uptake) [1] | antiproliferative activity after EIPA pre-incubation [2]
1 | CC(C)(C)C(=O)Nc1ccc2c(c1)C(=O)C(=O)c1ccccc1-2 [SF16170, SF1670] | enhanced macropinocytosis | –
2 | CNC(=O)c1ccc(N2C(=S)N(c3ccc(C#N)c(C(F)(F)F)c3)C(=O)C2(C)C)cc1F [enzalutamide, Enzalutamide] | – | did not affect
3 | C#C[C@]1(O)CC[C@H]2[C@@H]3CCC4=CC(=O)CC[C@]4(C)[C@H]3CC[C@@]21C [ethisterone, Ethisterone] | – | did not affect
